In ChEMBL document CHEMBL5724914, “Linking interpersonal differences in gut microbiota composition and drug biotransformation activity” (2024):

Experiments:
[1] = The drug is tested on Z-004 corresponding to metagenome with ENA study accession number: PRJEB37062 and ENA sample accession number: ERS12561804 for biotransformation under anaerobic condition. The drug concentrations were measured over 9 timepoints collected between 0 and 24 hours of incubation by liquid-chromatography-coupled mass spectrometry (LC–MS); settings: 2 µM
[2] = human gut metagenome, 24 h, 2 µM
[3] = The drug is tested on Z-016 corresponding to mouse gut metagenome with ENA study accession number: PRJEB37062 and ENA sample accession number: ERS12561815 for biotransformation under anaerobic condition. The drug concentrations were measured over 9 timepoints collected between 0 and 24 hours of incubation by liquid-chromatography-coupled mass spectrometry (LC–MS); settings: 2 µM
[4] = The drug is tested on Z-014 corresponding to rat gut metagenome with ENA study accession number: PRJEB37062 and ENA sample accession number: ERS12561814 for biotransformation under anaerobic condition. The drug concentrations were measured over 9 timepoints collected between 0 and 24 hours of incubation by liquid-chromatography-coupled mass spectrometry (LC–MS); settings: 2 µM
[5] = The drug is tested on Z-029 corresponding to rat gut metagenome with ENA study accession number: PRJEB37062 and ENA sample accession number: ERS12561828 for biotransformation under anaerobic condition. The drug concentrations were measured over 9 timepoints collected between 0 and 24 hours of incubation by liquid-chromatography-coupled mass spectrometry (LC–MS); settings: 2 µM
[6] = human gut metagenome, 24 h, 2 µM; remark: listed apart in the source
[7] = The drug is tested on Z-025 corresponding to rabbit gut metagenome with ENA study accession number: PRJEB37062 and ENA sample accession number: ERS12561824 for biotransformation under anaerobic condition. The drug concentrations were measured over 9 timepoints collected between 0 and 24 hours of incubation by liquid-chromatography-coupled mass spectrometry (LC–MS); settings: 2 µM
[8] = The drug is tested on WLS-170 corresponding to human gut metagenome with ENA study accession number: PRJEB37062 and ENA sample accession number: ERS12561762 for biotransformation under anaerobic condition. The drug concentrations were measured over 9 timepoints collected between 0 and 24 hours of incubation by liquid-chromatography-coupled mass spectrometry (LC–MS); settings: 2 µM
[9] = human gut metagenome, 24 h, 2 µM; remark: listed apart in the source
Further: call rule not given here.

CN1CCN2c3ccccc3Cc3ccccc3C2C1 (centres undefined) [MIANSERIN]
Bacterial Biotransformation [1]: Compound NOT metabolized
Bacterial Biotransformation [2]: Compound NOT metabolized
Bacterial Biotransformation [3]: Compound NOT metabolized
Bacterial Biotransformation [4]: Compound NOT metabolized
Bacterial Biotransformation [5]: Compound NOT metabolized
Bacterial Biotransformation [6]: Compound metabolized
Bacterial Biotransformation [7]: Compound metabolized
Bacterial Biotransformation [8]: Compound metabolized
Bacterial Biotransformation [9]: Compound NOT metabolized

CN1CCC[C@@H]1CCO[C@](C)(c1ccccc1)c1ccc(Cl)cc1.O=C(O)/C=C/C(=O)O [CLEMASTINE FUMARATE]
Bacterial Biotransformation [1]: Compound NOT metabolized
Bacterial Biotransformation [2]: Compound NOT metabolized
Bacterial Biotransformation [3]: Compound NOT metabolized
Bacterial Biotransformation [4]: Compound NOT metabolized
Bacterial Biotransformation [5]: Compound NOT metabolized
Bacterial Biotransformation [6]: Compound NOT metabolized
Bacterial Biotransformation [7]: Compound NOT metabolized
Bacterial Biotransformation [8]: Compound metabolized
Bacterial Biotransformation [9]: Compound metabolized

CC12CC3CC(C)(C1)CC(N)(C3)C2 [MEMANTINE]
Bacterial Biotransformation [1]: Compound NOT metabolized
Bacterial Biotransformation [2]: Compound NOT metabolized
Bacterial Biotransformation [3]: Compound NOT metabolized
Bacterial Biotransformation [4]: Compound NOT metabolized
Bacterial Biotransformation [5]: Compound NOT metabolized
Bacterial Biotransformation [6]: Compound NOT metabolized
Bacterial Biotransformation [7]: Compound NOT metabolized
Bacterial Biotransformation [8]: Compound metabolized
Bacterial Biotransformation [9]: Compound NOT metabolized

COc1cc2nc(N3CCN(C(=O)C4CCCO4)CC3)nc(N)c2cc1OC (centres undefined) [TERAZOSIN]
Bacterial Biotransformation [1]: Compound NOT metabolized
Bacterial Biotransformation [2]: Compound NOT metabolized
Bacterial Biotransformation [3]: Compound NOT metabolized
Bacterial Biotransformation [4]: Compound NOT metabolized
Bacterial Biotransformation [5]: Compound NOT metabolized
Bacterial Biotransformation [6]: Compound NOT metabolized
Bacterial Biotransformation [7]: Compound NOT metabolized
Bacterial Biotransformation [8]: Compound NOT metabolized
Bacterial Biotransformation [9]: Compound NOT metabolized

CC#C[C@]1(O)CC[C@H]2[C@@H]3CCC4=CC(=O)CCC4=C3[C@@H](c3ccc(N(C)C)cc3)C[C@@]21C [MIFEPRISTONE]
Bacterial Biotransformation [1]: Compound NOT metabolized
Bacterial Biotransformation [2]: Compound NOT metabolized
Bacterial Biotransformation [3]: Compound metabolized
Bacterial Biotransformation [4]: Compound NOT metabolized
Bacterial Biotransformation [5]: Compound NOT metabolized
Bacterial Biotransformation [6]: Compound metabolized
Bacterial Biotransformation [7]: Compound NOT metabolized
Bacterial Biotransformation [8]: Compound metabolized
Bacterial Biotransformation [9]: Compound metabolized

COc1ccc2c(c1)c(CC(=O)O)c(C)n2C(=O)c1ccc(Cl)cc1 [INDOMETHACIN]
Bacterial Biotransformation [1]: Compound NOT metabolized
Bacterial Biotransformation [2]: Compound metabolized
Bacterial Biotransformation [3]: Compound NOT metabolized
Bacterial Biotransformation [4]: Compound NOT metabolized
Bacterial Biotransformation [5]: Compound NOT metabolized
Bacterial Biotransformation [6]: Compound metabolized
Bacterial Biotransformation [7]: Compound NOT metabolized
Bacterial Biotransformation [8]: Compound metabolized
Bacterial Biotransformation [9]: Compound metabolized

CCOc1ccc2nc(S(N)(=O)=O)sc2c1 [ETHOXZOLAMIDE]
Bacterial Biotransformation [1]: Compound NOT metabolized
Bacterial Biotransformation [2]: Compound NOT metabolized
Bacterial Biotransformation [3]: Compound NOT metabolized
Bacterial Biotransformation [4]: Compound NOT metabolized
Bacterial Biotransformation [5]: Compound NOT metabolized
Bacterial Biotransformation [6]: Compound NOT metabolized
Bacterial Biotransformation [7]: Compound NOT metabolized
Bacterial Biotransformation [8]: Compound metabolized
Bacterial Biotransformation [9]: Compound NOT metabolized

CC(=O)OCC(CCn1cnc2cnc(N)nc21)COC(C)=O [FAMCICLOVIR]
Bacterial Biotransformation [1]: Compound NOT metabolized
Bacterial Biotransformation [2]: Compound metabolized
Bacterial Biotransformation [3]: Compound NOT metabolized
Bacterial Biotransformation [4]: Compound metabolized
Bacterial Biotransformation [5]: Compound NOT metabolized
Bacterial Biotransformation [6]: Compound metabolized
Bacterial Biotransformation [7]: Compound metabolized
Bacterial Biotransformation [8]: Compound metabolized
Bacterial Biotransformation [9]: Compound metabolized

O=C(O)CCC(=O)O.O=C(O[C@H]1CN2CCC1CC2)N1CCc2ccccc2[C@@H]1c1ccccc1 [SOLIFENACIN SUCCINATE]
Bacterial Biotransformation [1]: Compound metabolized
Bacterial Biotransformation [2]: Compound NOT metabolized
Bacterial Biotransformation [3]: Compound NOT metabolized
Bacterial Biotransformation [4]: Compound NOT metabolized
Bacterial Biotransformation [5]: Compound NOT metabolized
Bacterial Biotransformation [6]: Compound metabolized
Bacterial Biotransformation [7]: Compound metabolized
Bacterial Biotransformation [8]: Compound NOT metabolized
Bacterial Biotransformation [9]: Compound NOT metabolized

CC(=O)Nc1ccc(OC(C)=O)cc1 [DIACETAMATE]
Bacterial Biotransformation [1]: Compound metabolized
Bacterial Biotransformation [2]: Compound metabolized
Bacterial Biotransformation [3]: Compound metabolized
Bacterial Biotransformation [4]: Compound metabolized
Bacterial Biotransformation [5]: Compound metabolized
Bacterial Biotransformation [6]: Compound metabolized
Bacterial Biotransformation [7]: Compound metabolized
Bacterial Biotransformation [8]: Compound metabolized
Bacterial Biotransformation [9]: Compound metabolized

CN(C)C(=O)Oc1cc(OC(=O)N(C)C)cc(C(O)CNC(C)(C)C)c1 (centres undefined) [BAMBUTEROL]
Bacterial Biotransformation [1]: Compound metabolized
Bacterial Biotransformation [2]: Compound metabolized
Bacterial Biotransformation [3]: Compound NOT metabolized
Bacterial Biotransformation [4]: Compound NOT metabolized
Bacterial Biotransformation [5]: Compound NOT metabolized
Bacterial Biotransformation [6]: Compound metabolized
Bacterial Biotransformation [7]: Compound metabolized
Bacterial Biotransformation [8]: Compound NOT metabolized
Bacterial Biotransformation [9]: Compound NOT metabolized
